{"source": "patent US4250255A", "about": "“Assay method for isoenzyme activity” (Eastman Kodak Company, priority 1977, dated 1981)", "key": {"[1]": {"target": "T1, LDH isoenzymes (LD5 in the presence of LD1) (Oryctolagus cuniculus, UniProt P13491)", "T1 construct": "LD1 (LDHB tetramer) only as comparison", "assay": "Anionic amphiphiles tested for specific interaction with LDH isoenzymes (Table 2)", "assay_type": "biochemical", "method": "(§1) The assay for LDH activity in both the absence and presence of surfactant was conducted as follows. […] The resulting solution contains approximately 5 units/ml. […] To the equilibrated solution […]. of the enzyme solution was added, and the cuvette was rapidly shaken while covering the top of the cuvette with a small piece of Parafilm® and placed back into the spectrophotometer.\n(§2) Amphiphile solutions were prepared by weighing out a given amount of amphiphile, e.g., 100 mg, and preparing a stock solution in 30 mM sodium phosphate buffer in 100 ml. volumetric flask. Solutions of lower amphiphile concentration were prepared by making the appropriate dilutions from the stock solution.\nA number of anionic amphiphiles were investigated for specific inactivation of LD5 in the presence of LD1 and these compounds are listed in Table 2."}, "LD1": {"target": "LD1 (Sus scrofa, UniProt P00336)", "assay": "LDH activity assay with amphiphile, LDH isoenzymes", "assay_type": "biochemical, porcine", "design": "porcine LDH, LD1, LD2, LD3, LD4 and LD5 in the form of ammonium sulfate suspensions", "method": "(§3) 3. Beef heart LDH (Sigma Chemical Co., Type III), rabbit muscle LDH (Sigma Chemical Co., Type V) and porcine LDH, LD1, LD2, LD3, LD4 and LD5 in the form of ammonium sulfate suspensions were used for these examples.\nas §1, §2"}, "LD1 and LD5": {"system": "LD1 and LD5", "assay": "Screening of amphiphiles for ability to discriminate between LD1 and LD5", "quoted_text": "A series of solutions was prepared covering a range of concentrations for each amphiphile to be tested. The activities of both LD1 and LD5 were determined in the presence of the various concentrations of each amphiphile and compared with enzyme activities in buffer (relative activity).\nEnzyme activity in the presence and absence of amphiphile was measured by the following procedure: Stock solutions of NADH (4 mM) and pyruvate (40 mM) were prepared daily in 30 mM sodium phosphate buffer, pH 7.4. Enzyme solutions were prepared daily by withdrawing 5 μl of the stock enzyme solutions with a Hamilton syringe and diluting to 5 ml with 30 mM sodium phosphate buffer. (The resulting solution contains approximately 5 U of enzyme/ml.) The enzyme assay was run by pipetting 2.7 ml of buffer or buffer surfactant solution into a 10 mm path length quartz cuvette, and 100 μl each of NADH and pyruvate stock solutions were added. […] Enzyme solution was added with good mixing; the absorbance decrease at 340 nm was measured as a function of time. The rate of the reaction was determined by measuring the slope of the initial absorbance decrease, i.e., within the first 50 seconds of the reaction."}, "LD4": {"target": "T2, LD4 (Sus scrofa, UniProt P00336+P00339)", "T2 construct": "porcine LDH, LD1, LD2, LD3, LD4 and LD5 in the form of ammonium sulfate suspensions", "assay": "LDH activity assay with amphiphile, LDH isoenzymes", "assay_type": "biochemical, porcine", "conditions": "7 mM DSS; FIG. 8", "method": "as §3, §1, §2"}, "LD2": {"target": "T3, LD2 (Sus scrofa, UniProt P00336+P00339)", "T3 construct": "porcine LDH, LD1, LD2, LD3, LD4 and LD5 in the form of ammonium sulfate suspensions", "assay": "LDH activity assay with amphiphile, LDH isoenzymes", "assay_type": "biochemical, porcine", "conditions": "pH 7.4, read-out: LD2 activity remaining relative to buffer", "method": "as §3, §1, §2"}, "LD3": {"target": "T4, LD3 (Sus scrofa, UniProt P00336+P00339)", "T4 construct": "porcine LDH, LD1, LD2, LD3, LD4 and LD5 in the form of ammonium sulfate suspensions", "assay": "LDH activity assay with amphiphile, LDH isoenzymes", "assay_type": "biochemical, porcine", "conditions": "pH 7.4, read-out: LD3 activity remaining relative to buffer", "method": "as §3, §1, §2"}, "LD1 (beef heart)": {"target": "T5, LD1 (beef heart) (Bos taurus, UniProt Q5E9B1)", "T5 construct": "Beef heart LDH (Sigma Chemical Co., Type III); purchased Sigma Chemical Co. Type III; host or cells: beef heart", "assay": "LDH activity assay (pyruvate + NADH, absorbance decrease at 340 nm)", "assay_type": "biochemical", "conditions": "DSS 8.65 mM; CP 1 mM; FIG. 1B", "method": "as §1, §2\n(§4) The LDH enzyme assay (pyruvate+NADH→) is measured by the decrease in NADH absorbance at 340 nm with respect to time."}, "LD5 (rabbit muscle)": {"target": "T6, LD5 (rabbit muscle) (Oryctolagus cuniculus, UniProt P13491)", "T6 construct": "rabbit muscle LDH (Sigma Chemical Co., Type V); purchased Sigma Chemical Co. Type V; host or cells: rabbit muscle", "assay": "LDH activity assay (pyruvate + NADH, absorbance decrease at 340 nm)", "assay_type": "biochemical", "method": "as §1, §2, §4"}, "LD5": {"target": "LD5 (Sus scrofa, UniProt P00339)", "assay": "LDH activity assay with amphiphile, LDH isoenzymes", "assay_type": "biochemical, porcine", "design": "LD5 from two different species, i.e., rabbit muscle and hog muscle; from tissue; host or cells: hog muscle", "conditions": "7 mM DSS; FIG. 8", "method": "as §3, §1, §2"}, "mMDH": {"target": "T7, mMDH (Sus scrofa, UniProt P00346)", "T7 construct": "Porcine cMDH and mMDH were used as ammonium sulfate suspensions", "T7 sequence (P00346 25-338)": "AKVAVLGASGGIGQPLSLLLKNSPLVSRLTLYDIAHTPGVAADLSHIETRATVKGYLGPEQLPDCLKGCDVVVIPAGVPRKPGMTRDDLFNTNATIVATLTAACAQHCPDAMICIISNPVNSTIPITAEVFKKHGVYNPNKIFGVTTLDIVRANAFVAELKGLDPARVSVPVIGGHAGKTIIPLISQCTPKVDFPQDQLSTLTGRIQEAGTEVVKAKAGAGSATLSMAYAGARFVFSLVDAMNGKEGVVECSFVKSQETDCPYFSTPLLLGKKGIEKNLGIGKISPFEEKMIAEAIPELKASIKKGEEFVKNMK", "assay": "Assay for MDH (oxalacetic acid + NADH, 340 nm)", "assay_type": "biochemical, porcine", "conditions": "FIG. 17", "method": "1. Porcine cMDH and mMDH were used as ammonium sulfate suspensions. Typically, 5 μl of the enzyme stock solutions were diluted to 10 ml with 30 mM phosphate buffer, pH 7.4, prior to use. The resulting enzyme solutions were stored in ice water; 100 μl aliquots were withdrawn for assay except where another amount is specified.\nThe assay is based on conversion of oxalacetic acid to malate in the presence of NADH and MDH. The assay was made [formula] in 30 mM phosphate buffer, at ambient temperature, with and without appropriate surfactant concentrations, and contained 0.17 mM OAA and 0.13 mM NADH. The reaction was followed by monitoring the decrease in absorbance at 340 nm using either a Beckman 25 or Cary 118 spectrophotometer. The OAA solutions were stored over ice to prevent hydrolysis to pyruvic acid."}, "human LD3": {"target": "T8, human LD3 (Homo sapiens, UniProt P00338+P07195)", "T8 construct": "A specific human LDH isoenzyme (obtained from liver homogenate or red blood cell); from tissue; host or cells: human liver homogenate or red blood cell", "assay": "LDH assay with human enzyme-containing serum", "assay_type": "biochemical", "conditions": "0.1 M DSS; pH 7.8; 14% protein", "method": "as §1\n(§5) Pooled human serum, kept frozen until ready for use, was raised to pH 11.5 until all LDH activity was destroyed. The pH was then adjusted to 7.4 and the serum was again assayed for LDH activity to ensure that no LDH had been reactivated. A specific human LDH isoenzyme (obtained from liver homogenate or red blood cell) was then added to the pool to give an enzyme concentration of ~100 U/l. The spiked serum samples were refrigerated between uses and respiked when necessary. Fresh serum was prepared weekly.\n(§6) 8. The assay method used is the same as described above for Examples 1-12, except that the test samples consisted of 25-30 μl of serum instead of 100 μl of aqueous enzyme solution."}, "human LD2": {"target": "T9, human LD2 (Homo sapiens, UniProt P00338+P07195)", "T9 construct": "A specific human LDH isoenzyme (obtained from liver homogenate or red blood cell); from tissue; host or cells: human liver homogenate or red blood cell", "assay": "LDH assay with human enzyme-containing serum", "assay_type": "biochemical", "conditions": "0.1 M DSS; pH 7.8; 14% protein", "method": "as §1, §5, §6"}, "human LD4": {"target": "T10, human LD4 (Homo sapiens, UniProt P00338+P07195)", "T10 construct": "A specific human LDH isoenzyme (obtained from liver homogenate or red blood cell); from tissue; host or cells: human liver homogenate or red blood cell", "assay": "LDH assay with human enzyme-containing serum", "assay_type": "biochemical", "conditions": "0.1 M DSS; pH 7.8; 14% protein", "method": "as §1, §5, §6"}, "human LD1": {"target": "T11, human LD1 (Homo sapiens, UniProt P07195)", "T11 construct": "A specific human LDH isoenzyme (obtained from liver homogenate or red blood cell); from tissue; host or cells: human liver homogenate or red blood cell", "assay": "LDH assay with human enzyme-containing serum", "assay_type": "biochemical", "conditions": "0.1 M DSS; pH 7.8; 14% protein", "method": "as §1, §5, §6"}, "human LD5": {"target": "T12, human LD5 (Homo sapiens, UniProt P00338)", "T12 construct": "A specific human LDH isoenzyme (obtained from liver homogenate or red blood cell); from tissue; host or cells: human liver homogenate or red blood cell", "assay": "LDH assay with human enzyme-containing serum", "assay_type": "biochemical", "conditions": "0.1 M DSS; pH 7.8; 14% protein", "method": "as §1, §5, §6"}}, "note": "Where two headings read alike, the source gives them in different places."}
{"smiles": "CCCCCCCCCCOS(=O)(=O)[O-].[Na+]", "note": "[DSS, sodium decylsulfate]", "values": [{"measurement": "Interaction (specific inactivation of LD5 in the presence of LD1)", "setting": "[1]", "result": "useful positive results"}, {"measurement": "Interaction (specific inactivation of LD5 in the presence of LD1)", "setting": "[1]; listed as sodium decylsulfate", "result": "specific"}, {"measurement": "LD1 activity in amphiphile solution compared with buffer", "setting": "LD1; 9 mM DSS in 30 mM phosphate buffer, pH 7.4, FIG. 10", "result": "less than control LD1 activity in buffer"}, {"measurement": "isoenzyme activity beyond 9 mM amphiphile", "setting": "LD1; DSS beyond 9 mM, FIG. 8", "result": "only LD1 continues to show activity"}, {"measurement": "remaining activity at 7000 µM", "setting": "LD1; pH 7.4, read-out: LD1 activity remaining relative to buffer", "result": "~65", "unit": "%"}, {"measurement": "discrimination of LDH isoenzymes", "setting": "LD1 and LD5", "result": "excellent discriminators"}, {"measurement": "Effectiveness (LDH isoenzyme inhibition specificity, LD1 vs LD5)", "setting": "LD1 and LD5; range of amphiphile concentrations, relative activity vs buffer", "result": "++"}, {"measurement": "LD4 activity relative to buffer", "setting": "LD4", "result": "all the LD5 and LD4 activity is destroyed"}, {"measurement": "remaining activity at 7000 µM", "setting": "LD2", "result": "~60", "unit": "%"}, {"measurement": "remaining activity at 7000 µM", "setting": "LD3", "result": "~30", "unit": "%"}, {"measurement": "LD1 (beef heart) activity in the presence of amphiphile", "setting": "LD1 (beef heart)", "result": "almost no loss in LD1 activity"}, {"measurement": "LD5 (rabbit muscle) activity in the presence of amphiphile", "setting": "LD5 (rabbit muscle); DSS 8.65 mM, CP 1 mM, FIG. 1A", "result": "rapidly inactivates"}, {"measurement": "time to complete inactivation of LD5", "setting": "LD5 (rabbit muscle); anionic detergent (DSS), dead time of the instrument", "result": "≤ 5", "unit": "s"}, {"measurement": "LD5 activity relative to buffer", "setting": "LD5", "result": "all the LD5 and LD4 activity is destroyed"}, {"measurement": "inactivation of mMDH relative to cMDH", "setting": "mMDH", "result": "clear preferential inactivation of mMDH relative to cMDH"}, {"measurement": "human LD3 activity", "setting": "human LD3", "result": "completely deactivated"}, {"measurement": "human LD2 activity", "setting": "human LD2", "result": "completely deactivated"}, {"measurement": "human LD4 activity", "setting": "human LD4", "result": "completely deactivated"}, {"measurement": "human LD1 activity", "setting": "human LD1", "result": "fully active"}, {"measurement": "human LD5 activity", "setting": "human LD5", "result": "completely deactivated"}]}
